Where two headings read alike, the source gives them in different places.
Columns and labels:
[1] = target: T1, human cannabinoid receptor type 2 (Homo sapiens, UniProt P34972); assay: Human CB2 Radioligand Binding Assay; conditions: membranes from stably transfected CHO CB2 cells
T1 construct: expressed in transfected cells; membrane preparation
Method in brief: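 Filtration competition binding on membranes from CHO cells stably expressing human CB2, with [3H]CP-55,940 at its lot-specific Kd, in 50 mM Tris-HCl pH 7.4, EGTA, MgCl2, 5 mg/ml BSA, 1% DMSO; 90 min at 30° C. Compounds at 10 uM single point or dose-response; bound radioactivity by scintillation, 100 nM CP-55,940 as 100% efficacy.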

[2] = target: T2, human cannabinoid receptor type 1 (Homo sapiens, UniProt P21554); assay: Human CB1 Radioligand Binding Assay (basis of selectivity, CB2 vs. CB1); conditions: CB1: HEK 293 EBNA cells expressing human CB1; CB2: CHO CB2 membranes
T2 construct: purchased Perkin Elmer RBHCB1M; host or cells: HEK 293 EBNA cells
T2 sequence (P21554 whole entry): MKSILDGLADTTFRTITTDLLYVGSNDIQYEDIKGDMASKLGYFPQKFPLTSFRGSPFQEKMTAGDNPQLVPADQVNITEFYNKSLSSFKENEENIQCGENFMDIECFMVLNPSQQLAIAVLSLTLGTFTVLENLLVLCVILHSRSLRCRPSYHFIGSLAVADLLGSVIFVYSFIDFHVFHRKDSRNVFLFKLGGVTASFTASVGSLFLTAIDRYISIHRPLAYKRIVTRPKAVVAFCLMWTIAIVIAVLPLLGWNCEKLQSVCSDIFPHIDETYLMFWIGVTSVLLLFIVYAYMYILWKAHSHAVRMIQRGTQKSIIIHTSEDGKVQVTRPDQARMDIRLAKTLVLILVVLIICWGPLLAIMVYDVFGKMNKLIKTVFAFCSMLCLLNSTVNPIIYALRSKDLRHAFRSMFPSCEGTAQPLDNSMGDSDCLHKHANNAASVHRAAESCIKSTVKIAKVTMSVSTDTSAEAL
Method: 2. Human CB1 Radioligand Binding Assay
The incubation buffer was composed of 50 mM Tris-HCl pH 7.4, 2.5 mM EDTA, 5 mM MgCl2, 5.0 mg/ml fatty acid free BSA and the wash buffer was composed of 50 mM Tris-HCl pH 7.4, 2.5 mM EDTA, 5 mM MgCl2, 0.5 mg/ml fatty acid free BSA.

[3] = competition with [3H] CP-55,940, read-out: CB2 Ligand Binding Asssay EC50

T1 sequence (P34972 whole entry): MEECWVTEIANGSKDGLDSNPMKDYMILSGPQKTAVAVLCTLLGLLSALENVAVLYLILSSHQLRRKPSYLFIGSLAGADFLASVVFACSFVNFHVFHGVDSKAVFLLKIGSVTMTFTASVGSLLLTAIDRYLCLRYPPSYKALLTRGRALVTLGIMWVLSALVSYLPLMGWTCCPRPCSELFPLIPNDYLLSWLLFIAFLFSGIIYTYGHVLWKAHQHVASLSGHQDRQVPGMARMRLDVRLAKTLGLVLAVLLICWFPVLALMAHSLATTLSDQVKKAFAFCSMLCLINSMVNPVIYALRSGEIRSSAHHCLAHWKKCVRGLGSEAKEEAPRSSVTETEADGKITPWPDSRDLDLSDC

EC50 [1, 3]	Selectivity, CB2 vs. CB1 [2]	Compound	EC50 ([1]; CB2 Ligand Binding Asssay EC50, competition with [3H] CP-55,940)
< 1000 nM	− (− indicates ≦ 10−fold)	OC1(c2ccc(Cl)cc2)CCN(c2nc(-c3ccccc3Cl)nc3ccccc23)CC1 [Example 66, 4-(4-Chlorophenyl)-1-[2-(2-chlorophenyl)quinazolin-4-yl]piperidin-4-ol]	
< 1000 nM	− (− indicates ≦ 10−fold)	COc1ccc2nc(C3CCCCC3)nc(N3CCN(C)CC3)c2c1 [Example 163, 2-Cyclohexyl-6-methoxy-4-(4-methylpiperazin-1-yl)quinazoline]	
> 1000 nM	− (− indicates ≦ 10−fold)	CCCS(=O)(=O)N1CCN(c2nc(-c3ccccc3Cl)nc3ccccc23)CC1 [Example 84, 2-(2-Chlorophenyl)-4-(4-(propylsulfonyl)piperazin-1-yl)quinazoline]	
< 1000 nM	+ (+ indicates > 10−fold)	CC(C)(C)c1ccc2c(N3CCCC3)nc(Nc3ccc(F)cc3F)nc2c1 [Example 288, 7-tert-Butyl-N-(2,4-difluorophenyl)-4-(pyrrolidin-1-yl)quinazolin-2-amine]	
> 1000 nM	− (− indicates ≦ 10−fold)	Clc1ccc(-c2nc(N3CCCCC3)c3ccccc3n2)cc1 [Example 127, 2-(4-Chlorophenyl)-4-(piperidin-1-yl)quinazoline]	
< 1000 nM	− (− indicates ≦ 10−fold)	CC(C)(C)c1ccc(-c2nc(N3CCCC3)c3cc(Cl)ccc3n2)cc1 [Example 278, 2-(4-tert-Butylphenyl)-6-chloro-4-(pyrrolidin-1-yl)quinazoline]	
< 1000 nM	+ (+ indicates > 10−fold)	CC(=O)N1CCN(c2nc(-c3ccccc3F)nc3ccccc23)CC1 [Example 153, 1-(4-(2-(2-Fluorophenyl)quinazolin-4-yl)piperazin-1-yl)ethanone]	
> 1000 nM	− (− indicates ≦ 10−fold)	CC(C)c1nc(N2CCCC2)c2ccccc2n1 [Example 145, 2-Isopropyl-4-pyrrolidin-1-ylquinazoline]	
< 1000 nM	+ (+ indicates > 10−fold)	CC(=O)N1CCN(c2nc(-c3cccc(F)c3)nc3ccccc23)CC1 [Example 154, 1-(4-(2-(3-Fluorophenyl)quinazolin-4-yl)piperazin-1-yl)ethanone]	
< 1000 nM	+ (+ indicates > 10−fold)	Clc1ccc(-c2nc(N3CCCC3)c3ccccc3n2)cc1 [Example 128, 2-(4-Chlorophenyl)-4-(pyrrolidin-1-yl)quinazoline]	
> 1000 nM	− (− indicates ≦ 10−fold)	CCOC(=O)N1CCN(c2nc(-c3ccccc3Cl)nc3cc(C(=O)OC)ccc23)CC1 [Example 317, Methyl 2-(2-chlorophenyl)-4-(4-(ethoxycarbonyl)piperazin-1-yl)quinazoline-7-carboxylate]	
< 1000 nM	− (− indicates ≦ 10−fold)	CC(=O)N1CCN(c2nc(-c3ccccc3Cl)nc3cccc(C)c23)CC1 [Example 254, 1-(4-(2-(2-Chlorophenyl)-5-methylquinazolin-4-yl)piperazin-1-yl)ethanone]	
> 1000 nM	− (− indicates ≦ 10−fold)	COC(=O)c1ccc2nc(-c3ccccc3Cl)nc(Nc3cccc(OC(C)C)c3)c2c1 [Example 327, Methyl 2-(2-chlorophenyl)-4-(3-isopropoxyphenylamino)quinazoline-6-carboxylate]	
< 1000 nM	+ (+ indicates > 10−fold)	CCOC(=O)N1CCN(c2nc(C3CCCCC3)nc3ccc(Cl)cc23)CC1 [Example 221, Ethyl 4-(6-chloro-2-cyclohexylquinazolin-4-yl)piperazine-1-carboxylate]	
> 1000 nM	− (− indicates ≦ 10−fold)	Clc1ccccc1-c1nc(NCC2CCCO2)c2ccccc2n1 (stereo not shown) [Example 188, 2-(2-Chlorophenyl)-N-((tertrahydrofuran-2-yl)methyl)quinzaoline-4-amine]	

Further lines, the compound ahead of its results:

Compound	EC50 [1, 3]	Selectivity, CB2 vs. CB1 [2]	EC50 ([1]; CB2 Ligand Binding Asssay EC50, competition with [3H] CP-55,940)
O=S(=O)(NCc1nc(N2CCCC2)c2ccc(Cl)cc2n1)c1cccc2ccccc12 [Example 309, N-((7-Chloro-4-(pyrrolidin-1-yl)quinazolin-2-yl)methyl)naphthalene-1-sulfonamide]	< 1000 nM	+ (+ indicates > 10−fold)	
CCc1ccc2nc(-c3ccccc3Cl)nc(N3CCCCC3)c2c1 [Example 175, 2-(2-Chlorophenyl)-6-ethyl-4-(piperidin-1-yl)quinazoline]	< 1000 nM	− (− indicates ≦ 10−fold)	
O=C1CCCN1c1nc(-c2ccccc2Cl)nc2ccccc12 [Example 70, 1-(2-(2-Chlorophenyl)quinazolin-4-yl)pyrrolidin-2-one]	> 1000 nM	− (− indicates ≦ 10−fold)	
CCOC(=O)N1CCN(c2nc(Cc3cccc(OC)c3)nc3ccccc23)CC1 [Example 196, Ethyl 4-(2-(3-Methoxybenzyl)quinazolin-4-yl)piperazine-1-carboxylate]	> 1000 nM	− (− indicates ≦ 10−fold)	
CN1CCN(c2nc(-c3ccccc3Cl)nc3ccc(OC(F)(F)F)cc23)CC1 [Example 180, 2-(2-Chlorophenyl)-4-(4-methylpiperazin-1-yl)-6-(trifluoromethoxy) quinazoline]	< 1000 nM	− (− indicates ≦ 10−fold)	
Clc1ccc(-c2nc(NCc3ccccc3)c3ccccc3n2)c(Cl)c1 [Example 31, Benzyl[2-(2,4-dichlorophenyl)quinazolin-4-yl]amine]	> 1000 nM	− (− indicates ≦ 10−fold)	
COc1cc2nc(CNS(=O)(=O)c3cccc4ccccc34)nc(N3CCCC3)c2cc1OC [Example 307, N-((6,7-Dimethoxy-4-(pyrrolidin-1-yl)quinazolin-2-yl)methyl)naphthalene-1-sulfonamide]	< 1000 nM	− (− indicates ≦ 10−fold)	
COc1ccc(Cc2nc(N3CCCCC3)c3ccccc3n2)cc1OC [Example 335, 2-(3,4-Dimethoxybenzyl)-4-(piperidin-1-yl)quinazoline]	> 1000 nM	− (− indicates ≦ 10−fold)	
Clc1ccccc1-c1nc(NCCc2ccccn2)c2ccccc2n1 [Example 191, 2-(2-Chlorophenyl)-N-(2-(pyridine-2-yl)ethyl)quinazolin-4-amine]	> 1000 nM	− (− indicates ≦ 10−fold)	
CCOC(=O)N1CCN(c2nc(-c3ccccc3Cl)nc3cccc(OC)c23)CC1 [Example 244, Ethyl 4-(2-(2-chlorophenyl)-5-methoxyquinazolin-4-yl)piperazine-1-carboxylate]	< 1000 nM	+ (+ indicates > 10−fold)	
CC1CCCCN1c1nc(-c2ccccc2Cl)nc2ccccc12 (stereo not shown) [Example 59, 2-(2-Chlorophenyl)-4-(2-methylpiperidin-1-yl)quinazoline]	< 1000 nM	− (− indicates ≦ 10−fold)	
COc1cc2nc(Oc3ccc(C(C)(C)C)cc3)nc(N3CCCC3)c2cc1OC [Example 296, 2-(4-tert-Butylphenoxy)-6,7-dimethoxy-4-(pyrrolidin-1-yl)quinazoline]	> 1000 nM	− (− indicates ≦ 10−fold)	
Fc1cccc2nc(-c3ccccc3Cl)nc(N3CCCC3)c12 [Example 248, 2-(2-Chlorophenyl)-5-fluoro-4-(pyrrolidin-1-yl)quinazoline]	< 1000 nM	+ (+ indicates > 10−fold)	
Cc1ccccc1C(C)c1nc(N2CCCC2)c2ccccc2n1 (stereo not shown) [Example 342, 4-(Pyrrolidin-1-yl)-2-(1-o-tolylethyl)quinazoline]	> 1000 nM	− (− indicates ≦ 10−fold)	
COC(=O)c1ccc2nc(-c3ccccc3Cl)nc(Nc3cc(OC)cc(OC)c3)c2c1 [Example 328, Methyl 2-(2-chlorophenyl)-4-(3,5-dimethoxyphenylamino)quinazoline-6-carboxylate]	> 1000 nM	− (− indicates ≦ 10−fold)	
CC(=O)N1CCCN(c2nc(-c3ccccc3Cl)nc3ccccc23)CC1 [Example 334, 1-(4-(2-(2-Chlorophenyl)quinazolin-4-yl)-1,4-diazepan-1-yl)ethanone]	< 1000 nM	− (− indicates ≦ 10−fold)	
CCN(CC)C(=O)c1ccc2nc(-c3ccccc3Cl)nc(N3CCOCC3)c2c1 [Example 315, 2-(2-Chlorophenyl)-N,N-diethyl-4-morpholinoquinazoline-6-carboxamide]		− (− indicates ≦ 10−fold)	> 1000 nM
CC(C)(C)CCNc1nc(-c2ccccc2Cl)nc2ccccc12 [Example 189, 2-(2-Chlorophenyl)-N-(3,3-dimethylbutyl)quinazolin-4-amine]	> 1000 nM	− (− indicates ≦ 10−fold)	
CC(=O)N1CCN(c2nc(C3CCCCC3)nc3ccc(Cl)cc23)CC1 [Example 185, 1-(4-(6-Chloro-2-cyclohexylquinazolin-4-yl)piperazin-1-yl)ethanone]	< 1000 nM	− (− indicates ≦ 10−fold)	
COc1ccc2nc(-c3ccccc3F)nc(N3CCN(C(C)=O)CC3)c2c1 [Example 274, 1-(4-(2-(2-Fluorophenyl)-6-methoxyquinazolin-4-yl)piperazin-1-yl)ethanone]	< 1000 nM	− (− indicates ≦ 10−fold)	

Reference: patent publication US20090209536A1, “AMINOQUINAZOLINE CANNABINOID RECEPTOR MODULATORS FOR TREATMENT OF DISEASE” (KALYPSYS, INC., priority 2007, published 2009)
